The source of these data is patent US20110144331A1, “Cinnoline Compounds for the Treatment of Anxiety, Cognitive and Mood Disorders” (AstraZeneca AB, priority 2005, published 2011).

Test [1] concerns the target T1, human α1β2γ2 GABAA receptor (Homo sapiens, UniProt P14867+P18507).
T1 construct: expressed in transfected cells; host or cells: Xenopus laevis oocytes injected with capped cRNA
Kind of test: Two-electrode voltage-clamp in Xenopus oocytes, potentiation of GABA EC10 current, GABAA1. The class given is cell-based. The conditions noted are these: percentage potentiation of GABA EC10 current divided by that of diazepam control. As for the experimental part:
(§1) GABAA receptors were heterologously expressed in Xenopus oocytes by injecting cRNA corresponding to human α1, α2, α3, α5, β2, β3 and γ2 subunits of the GABAA receptor genes. The specific subunit combinations (subtypes) were as follows: α1β2γ2, α2β3γ2, α3β3γ2, and α5β3γ2. The EC10 of GABA was approximated for each cell. Stability of GABA-mediated (EC10) current was established. Modulatory effect of test compound was determined and compared across subtypes. […] Thus, the assay can characterize modulatory effects and determine subtype selectivity of test compounds on major subtypes of GABAA receptors.
(§2) Surgically removed ovarian lobes were teased out in OR2 solution (82 NaCl, 2.5 KCl, 5 HEPES, 1.5 NaH2PO4, 1 MgCl2, 0.1 EDTA, in mM, pH 7.4). The oocytes were defolliculated by incubation in 25 mL OR2 containing 0.2% collagenase 1A (SIGMA) two times for about 60 minutes on a platform shaker and stored in Leibovitz's L-15 medium. Oocytes were injected the following day in 0.5× Leibovitz's L-15 medium containing […] gentamycin, 10 units/ml penicillin, and […] streptomycin.
(§3) Capped cRNAs from the linearized vectors containing human α1, β2 and γ2 subunits of the GABAA receptor genes were mixed in ratio of 1:1:30. Oocytes were injected with 25-50 nL of mixed RNA with an appx molar ratio for α1, β2, and γ2 as 1:1:10. Oocyte recordings were done 2-10 days after injection. The same methods apply to subtypes derived from α2β2γ2, α3β3γ2, and α5β3γ2, except for 1:1:1 ratio was used for α, β, and γ subunits.
(§4) All measurements were done in a medium containing ND-96 (96 NaCl, 2 KCl, 1.8 CaCl2.2H2O, 1 MgCl2.6H2O, 5 HEPES, in mM, pH 7.5). Two-electrode voltage-clamp recording was carried out using OpusXpress amplifier (Axon Instruments, Foster City, Calif.), which allows simultaneous recording from 8 oocytes. Oocytes were impaled with two electrodes of 1-2 MΩ tip resistance when filled with 3M KCl. Recordings were begun when membrane potential became stable at potentials negative to −50-−60 mV. Membrane potential was held at −60 mV. […] The concentration of GABA corresponded to the EC10 value calculated for each oocyte. The modulator pulses started 30 s before the GABA pulse so as to allow preincubation with the modulator. A set of 3 pulses with just GABA without modulator was given prior to the modulator-containing pulses to define the baseline GABA response. Two oocytes per each experiment were dedicated to observe the effect of diazepam on GABA response to ensure the presence of γ2 subunit in the GABAA pentameric complex, which imparts diazepam sensitivity to the complex.
(§5) Current amplitude (i) was measured from baseline to peak using Clampfit (Axon Inst., Foster City, Calif.). Potentiation was calculated as percent change from the baseline GABA current flux 100×(imod/icontrol)−1) where imod=current mediated by modulator+GABA and icontrol=current mediated by GABA alone. […] Similarly, a value of −50% potentiation means the presence of modulator caused a 50% decrease in the control current. Various other data shown here were fitted and plotted using GraphPad Prism (GraphPad Software, Inc. San Diego, Calif.). The percentage potentiation was converted to relative potentiation by dividing it with percentage potentiation value obtained from the same assay with diazepam as a control.

The target of test [2] is T2, human α2β3γ2 GABAA receptor (Homo sapiens, UniProt P18507+P47869).
T2 construct: expressed in transfected cells; host or cells: Xenopus laevis oocytes injected with capped cRNA (α:β:γ 1:1:1)
Kind of test: Two-electrode voltage-clamp in Xenopus oocytes, potentiation of GABA EC10 current, GABAA2. Type of test: cell-based. The conditions noted are these: percentage potentiation of GABA EC10 current divided by that of diazepam control. As for the experimental part:
as §1, §2, §3, §4, §5
A general note: In two-electrode clamp one electrode senses voltage and the other passes current.

T2 sequence (P47869 29-451): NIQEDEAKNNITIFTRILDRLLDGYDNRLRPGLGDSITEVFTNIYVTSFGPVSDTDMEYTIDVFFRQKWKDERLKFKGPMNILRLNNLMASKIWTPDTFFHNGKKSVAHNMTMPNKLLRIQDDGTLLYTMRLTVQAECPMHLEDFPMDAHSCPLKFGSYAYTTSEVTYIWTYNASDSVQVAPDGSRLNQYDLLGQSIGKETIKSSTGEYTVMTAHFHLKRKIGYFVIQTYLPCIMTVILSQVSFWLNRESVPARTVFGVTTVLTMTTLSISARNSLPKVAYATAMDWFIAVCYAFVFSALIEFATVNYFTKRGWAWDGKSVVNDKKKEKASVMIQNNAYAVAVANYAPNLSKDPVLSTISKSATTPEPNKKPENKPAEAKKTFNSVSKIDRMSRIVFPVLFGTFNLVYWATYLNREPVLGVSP
T2 sequence (P18507 40-475): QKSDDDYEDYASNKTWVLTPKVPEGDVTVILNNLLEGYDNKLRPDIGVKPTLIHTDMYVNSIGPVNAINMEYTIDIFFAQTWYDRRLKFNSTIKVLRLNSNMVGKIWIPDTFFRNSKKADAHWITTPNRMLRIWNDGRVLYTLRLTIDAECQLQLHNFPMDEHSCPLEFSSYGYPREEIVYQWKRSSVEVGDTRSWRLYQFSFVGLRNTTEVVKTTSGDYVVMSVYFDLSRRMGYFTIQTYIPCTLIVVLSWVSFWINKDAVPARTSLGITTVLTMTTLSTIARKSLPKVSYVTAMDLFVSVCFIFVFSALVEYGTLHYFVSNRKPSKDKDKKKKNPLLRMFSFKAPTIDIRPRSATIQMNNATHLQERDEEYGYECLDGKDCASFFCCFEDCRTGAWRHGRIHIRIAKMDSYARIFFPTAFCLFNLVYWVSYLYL
T2 sequence (P28472 26-473 partner): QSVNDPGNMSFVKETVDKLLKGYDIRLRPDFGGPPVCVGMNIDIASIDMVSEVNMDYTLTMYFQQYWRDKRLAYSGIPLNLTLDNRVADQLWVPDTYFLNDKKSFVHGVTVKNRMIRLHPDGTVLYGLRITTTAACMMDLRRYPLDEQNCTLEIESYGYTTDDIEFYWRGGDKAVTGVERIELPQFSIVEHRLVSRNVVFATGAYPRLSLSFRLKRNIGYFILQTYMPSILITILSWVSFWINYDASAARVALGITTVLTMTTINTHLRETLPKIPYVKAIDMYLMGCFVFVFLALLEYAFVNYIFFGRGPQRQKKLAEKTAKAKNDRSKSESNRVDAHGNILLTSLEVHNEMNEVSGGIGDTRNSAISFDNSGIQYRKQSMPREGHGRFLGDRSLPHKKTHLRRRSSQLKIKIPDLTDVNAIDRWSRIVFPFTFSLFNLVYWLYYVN
T1 sequence (P14867 28-456): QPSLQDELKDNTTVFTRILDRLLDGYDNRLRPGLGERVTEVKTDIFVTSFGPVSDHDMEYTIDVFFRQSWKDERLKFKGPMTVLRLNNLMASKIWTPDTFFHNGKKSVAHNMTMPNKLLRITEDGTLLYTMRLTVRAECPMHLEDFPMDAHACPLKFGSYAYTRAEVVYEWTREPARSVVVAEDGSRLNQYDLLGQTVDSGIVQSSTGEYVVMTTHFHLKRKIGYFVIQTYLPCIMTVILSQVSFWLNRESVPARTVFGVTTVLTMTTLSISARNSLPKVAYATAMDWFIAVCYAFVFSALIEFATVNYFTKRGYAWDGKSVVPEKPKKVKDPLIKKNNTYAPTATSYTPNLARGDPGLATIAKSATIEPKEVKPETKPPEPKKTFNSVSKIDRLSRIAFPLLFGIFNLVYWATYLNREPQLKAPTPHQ
T1 sequence (P47870 25-512 partner limits assumed): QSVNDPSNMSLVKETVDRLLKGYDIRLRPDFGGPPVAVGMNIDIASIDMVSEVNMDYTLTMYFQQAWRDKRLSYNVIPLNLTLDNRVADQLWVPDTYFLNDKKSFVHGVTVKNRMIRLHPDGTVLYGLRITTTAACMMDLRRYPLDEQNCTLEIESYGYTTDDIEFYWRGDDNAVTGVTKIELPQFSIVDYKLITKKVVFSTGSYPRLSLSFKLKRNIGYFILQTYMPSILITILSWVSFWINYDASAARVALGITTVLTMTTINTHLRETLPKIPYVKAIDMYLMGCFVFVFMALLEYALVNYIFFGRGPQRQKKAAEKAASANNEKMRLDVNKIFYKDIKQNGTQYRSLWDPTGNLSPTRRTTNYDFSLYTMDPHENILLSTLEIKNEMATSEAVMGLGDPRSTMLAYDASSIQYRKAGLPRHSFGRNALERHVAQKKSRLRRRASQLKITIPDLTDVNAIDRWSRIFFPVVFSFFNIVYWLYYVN
T1 sequence (P18507 40-475): as the sequence (P18507 40-475) above

Regarding `CCCNC(=O)c1nnc2c(-c3cc(Cl)ccc3OC)c(F)ccc2c1N`, the “Relative Potentiation for GABAA1” value in test [1] is given as 0.25.
`CCCNC(=O)c1nnc2c(-c3ccccc3C(F)(F)F)cccc2c1N`: the “Relative Potentiation for GABAA2” value in test [2] turned out to be 0.063. Also, in test [1], the “Relative Potentiation for GABAA1” value is given as 0.12.
Regarding `COc1cccc(F)c1-c1cccc2c(N)c(C(=O)NC3CCC3)nnc12`, the “Relative Potentiation for GABAA2” value in test [2] came to 0.12. For the same molecule, the “Relative Potentiation for GABAA1” value in test [1] is listed as 0.0017.
`CCCNC(=O)c1nnc2c(-c3cc(OC)cc(OC)c3)c(F)ccc2c1N`: the “Relative Potentiation for GABAA1” value in test [1] is 0.38.
For the molecule `CCCNC(=O)c1nnc2c(-c3ccc(OC)c(OC)c3OC)c(F)ccc2c1N`, the “Relative Potentiation for GABAA1” value in test [1] is on record as 0.51.
Same read-out and setting: in the case of `CCCNC(=O)c1nnc2c(-c3ccc(OC)cc3C(F)(F)F)c(F)ccc2c1N` it was 0.28; in that of `CCCNC(=O)c1nnc2c(-c3ccc(F)cc3OCC)c(F)ccc2c1N`, 0.27.
The same measure, in the same setting: for `CCCNC(=O)c1nnc2c(-c3cc(Cl)ccc3Cl)c(F)ccc2c1N` the value was 0.21.
In the case of `CCCNC(=O)c1nnc2c(-c3cc(C(F)(F)F)ccc3F)cccc2c1N`, the “Relative Potentiation for GABAA2” value in test [2] is reported as 0.59. The “Relative Potentiation for GABAA1” value in test [1] amounted to 0.41.
Turning to `CCCNC(=O)c1nnc2c(-c3cncc(C(=O)N4CCC4)c3)cccc2c1N`, the “Relative Potentiation for GABAA2” value in test [2] is −0.033. For the same molecule, the “Relative Potentiation for GABAA1” value in test [1] was −0.11.
The corresponding values for `CCCNC(=O)c1nnc2c(-c3ccc(OC)cc3C(F)(F)F)cccc2c1N` are 0.16 and 0.12.
The corresponding values for `CCCNC(=O)c1nnc2c(-c3ccc(OC)cc3OC)cccc2c1N` are 0.15 and 0.18.
For `CCCNC(=O)c1nnc2c(-c3cccnc3)cccc2c1N`, the “Relative Potentiation for GABAA2” value in test [2] was 0.054. In test [1], the “Relative Potentiation for GABAA1” value is recorded as −0.11.
Regarding `CCCNC(=O)c1nnc2c(-c3cnc(OC)nc3OC)c(Cl)ccc2c1N`, in test [2], the “Relative Potentiation for GABAA2” value came to 0.29. Further, the “Relative Potentiation for GABAA1” value in test [1] is 0.19.
As for `CCCNC(=O)c1nnc2c(-c3ccc(OC)c(F)c3)c(F)ccc2c1N`, the “Relative Potentiation for GABAA2” value in test [2] amounted to 0.16. Further, in test [1], the “Relative Potentiation for GABAA1” value is listed as 0.1.
As for `CCCNC(=O)c1nnc2c(-c3cc(C)ccc3OC)c(Cl)ccc2c1N`, in test [1], the “Relative Potentiation for GABAA1” value was found to be 0.47.
On to `CCCCNC(=O)c1nnc2c(-c3cnc(OC)nc3OC)cccc2c1N`, for which the “Relative Potentiation for GABAA2” value in test [2] is 0.45. Also, the “Relative Potentiation for GABAA1” value in test [1] is 0.16.
As to `CCCNC(=O)c1nnc2c(-c3cccc(OC)c3F)cccc2c1N`, the “Relative Potentiation for GABAA2” value in test [2] is reported as 0.26. The “Relative Potentiation for GABAA1” value in test [1] is 0.045.
On the same counts, the results for `CCCNC(=O)c1nnc2c(-c3cccc(C(=O)N4CCC4)c3)cccc2c1N` are −0.0075 and 0.19.
On the same counts, the results for `CCCNC(=O)c1nnc2c(-c3ccc(OC)c(OC)c3)cccc2c1N` are 0.28 and 0.33.
On the same counts, the results for `CCCNC(=O)c1nnc2c(-c3ccc(C)nc3)cccc2c1N` are 0.14 and −0.16.
Consider `CCCNC(=O)c1nnc2c(-c3ccc(OC)cc3F)cccc2c1N`, for which, in test [2], the “Relative Potentiation for GABAA2” value came to 0.12. Besides, in test [1], the “Relative Potentiation for GABAA1” value is 0.
In the case of `CCCNC(=O)c1nnc2c(-c3cncc(OC)c3)cccc2c1N`, the “Relative Potentiation for GABAA2” value in test [2] came to 0.34. For the same molecule, the “Relative Potentiation for GABAA1” value in test [1] came out at 0.07.
The corresponding values for `CCCNC(=O)c1nnc2c(-c3cccc(OC)c3)cccc2c1N` are 0.22 and 0.13.
The corresponding values for `CCCNC(=O)c1nnc2c(-c3ccc(F)cc3OC)cccc2c1N` are 0.38 and 0.12.
On the same counts, the results for `CCNC(=O)c1nnc2c(-c3cnccc3OC)cccc2c1N` are 0.28 and −0.02.
For the molecule `CCCNC(=O)c1nnc2c(-c3cc(OC)cc(OC)c3)cccc2c1N`, the “Relative Potentiation for GABAA2” value in test [2] stood at 0.57. Further, the “Relative Potentiation for GABAA1” value in test [1] was found to be 0.28.
The corresponding values for `CCCNC(=O)c1nnc2c(-c3cccc(N(C)C)c3)cccc2c1N` are 0.19 and 0.17.
In the case of `CCCNC(=O)c1nnc2c(-c3cc(F)ccc3C)cccc2c1N`, in test [2], the “Relative Potentiation for GABAA2” value stood at 0.22. Moreover, in test [1], the “Relative Potentiation for GABAA1” value is 0.02.
For `CCCNC(=O)c1nnc2c(-c3ccc(OC)cc3OC)c(Cl)ccc2c1N`, the “Relative Potentiation for GABAA1” value in test [1] is listed as 0.87.
As for `CCCNC(=O)c1nnc2c(-c3cc(F)cc(F)c3OC)c(F)ccc2c1N`, the “Relative Potentiation for GABAA2” value in test [2] came to 0.14. The “Relative Potentiation for GABAA1” value in test [1] came to 0.1.
Take `CCCNC(=O)c1nnc2c(-c3ccccc3)c(Cl)ccc2c1N`: the “Relative Potentiation for GABAA2” value in test [2] was determined as 0.16. Moreover, the “Relative Potentiation for GABAA1” value in test [1] stood at 0.25.
Take `CCCNC(=O)c1nnc2c(-c3ccc(OC)c(OC)c3OC)cccc2c1N`: the “Relative Potentiation for GABAA2” value in test [2] is 0.33. Also, the “Relative Potentiation for GABAA1” value in test [1] stood at 0.47.
On the same counts, the results for `CCCNC(=O)c1nnc2c(-c3cc(C)nn3C)cccc2c1N` are 0.18 and 0.23.
Consider `CCCNC(=O)c1nnc2c(-c3cc(OC)ccc3C)cccc2c1N`, for which the “Relative Potentiation for GABAA2” value in test [2] worked out at 0.22. In addition, in test [1], the “Relative Potentiation for GABAA1” value was 0.1.
Regarding `CCCNC(=O)c1nnc2c(-c3nc(Br)ccc3OC)cccc2c1N`, the “Relative Potentiation for GABAA1” value in test [1] stood at 0.34.
For `CCCNC(=O)c1nnc2c(-c3cnn(C)c3)cccc2c1N`, in test [2], the “Relative Potentiation for GABAA2” value was found to be 0.16. Also, the “Relative Potentiation for GABAA1” value in test [1] is given as −0.16.
On the same counts, the results for `CCCNC(=O)c1nnc2c(-c3ccc(Cl)cc3)c(F)ccc2c1N` are 0.19 and 0.02.
On the same counts, the results for `CCCNC(=O)c1nnc2c(-c3ccc(OC)nc3)cccc2c1N` are 0.16 and −0.08.
On the same counts, the results for `CCCNC(=O)c1nnc2c(-c3cccc(S(C)(=O)=O)c3)cccc2c1N` are 0.26 and 0.34.
`CCCNC(=O)c1nnc2c(-c3cc(F)ccc3OC)cccc2c1N`: the “Relative Potentiation for GABAA2” value in test [2] was determined as 0.4. Also, in test [1], the “Relative Potentiation for GABAA1” value came out at 0.026.
As for `CCNC(=O)c1nnc2c(-c3cc(C)ccc3OC)cccc2c1N`, the “Relative Potentiation for GABAA1” value in test [1] amounted to 0.23.
As to `CCCNC(=O)c1nnc2c(-c3cccc(F)c3OC)cccc2c1N`, the “Relative Potentiation for GABAA2” value in test [2] worked out at 0.11. In addition, the “Relative Potentiation for GABAA1” value in test [1] is 0.11.
Take `CCCNC(=O)c1nnc2c(-c3cc(C)ccc3C)c(Cl)ccc2c1N`: the “Relative Potentiation for GABAA2” value in test [2] was determined as 0.22. Also, in test [1], the “Relative Potentiation for GABAA1” value is reported as 0.24.
On the same counts, the results for `CCCNC(=O)c1nnc2c(-c3cccc(Cl)c3)cccc2c1N` are 0.53 and 0.18.
Turning to `CCCCNC(=O)c1nnc2c(-c3cc(C)ccc3OC)cccc2c1N`, the “Relative Potentiation for GABAA1” value in test [1] was 0.32.
On to `CCCNC(=O)c1nnc2c(-c3cc(OC)ccc3OC)c(Cl)ccc2c1N`, for which, in test [1], the “Relative Potentiation for GABAA1” value is listed as 0.32.
Still for that read-out and setting: in the case of `CCCNC(=O)c1nnc2c(-c3cc(Cl)cc(Cl)c3)c(F)ccc2c1N` it was 0.36; in that of `CCCNC(=O)c1nnc2c(-c3cc(C(=O)N4CCC4)ccc3OC)cccc2c1N`, 0.48.
